Results: ChEMBL document CHEMBL1955803, “Preclinical in vivo evaluation of efficacy, pharmacokinetics, and pharmacodynamics of a novel MEK1/2 kinase inhibitor RO5068760 in multiple tumor models” (Mol Cancer Ther, 2010)
Calls of active or inactive are those of the source. No cut-off for these calls is given here.

Columns and labels:
[1] = target: Dual specificity mitogen-activated protein kinase kinase 1 (Homo sapiens, UniProt Q02750); assay: Inhibition of MEK1 in human LOX cells assessed as inhibition of ERK phosphorylation by Western blot analysis; format: cell-based
Sequence of Dual specificity mitogen-activated protein kinase kinase 1 (Q02750 whole entry): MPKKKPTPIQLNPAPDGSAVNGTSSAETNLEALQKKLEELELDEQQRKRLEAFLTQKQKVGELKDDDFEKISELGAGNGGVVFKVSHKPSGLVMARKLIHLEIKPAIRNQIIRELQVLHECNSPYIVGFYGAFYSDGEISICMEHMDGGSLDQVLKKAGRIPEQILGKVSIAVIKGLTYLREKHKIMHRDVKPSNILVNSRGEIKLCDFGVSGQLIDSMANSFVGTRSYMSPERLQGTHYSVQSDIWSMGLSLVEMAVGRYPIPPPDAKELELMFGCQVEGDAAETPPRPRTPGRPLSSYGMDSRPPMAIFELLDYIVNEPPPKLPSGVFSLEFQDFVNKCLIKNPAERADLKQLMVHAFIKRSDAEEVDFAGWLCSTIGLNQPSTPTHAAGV

[2] = Growth inhibition of human LOX cells expressing B-Raf V600E mutant by MTT assay; format: functional, cell-based
NCI-H460 [3] = assay: Growth inhibition of human […] mutant by MTT assay; format: functional, cell-based
HT-29 = assay: Induction of apoptosis in human HT-29 cells; format: functional, cell-based
[4] = Cell cycle arrest in human LOX cells assessed as accumulation at G1 phase; format: functional, cell-based
[5] = Antitumor activity against human LOX cells expressing B-Raf V600E mutant xenografted in nude mouse assessed as tumor growth inhibition at 6.25 mg/kg, po bid; format: functional; conditions: read-out: GI
Mus musculus [6] = assay: Toxicity in human LOX cells expressing B-Raf V600E mutant xenografted nude mouse assessed as gross signs of adverse effect at 500 mg/kg, po administered weekly once for 3 weeks; format: organism-based; parameters: dose 500 mg/kg, route oral; conditions: in vivo, 504 h
Mus musculus [7] = assay: Toxicity in human MIAPaCa2 cells expressing K-Ras G12C mutant xenografted nude mouse assessed as gross signs of adverse effect at 500 mg/kg, po administered weekly once for 3 weeks; format: organism-based, MIA PaCa-2; parameters: dose 500 mg/kg, route oral; conditions: in vivo, 504 h
Mus musculus [8] = assay: Inhibition of MEK-mediated ERK phosphorylation in tumor of human LOX cells expressing B-Raf V600E mutant xenografted nude mouse at 100 mg/kg, po after 1 hr by Western blot analysis relative to control; format: functional
Mus musculus [9] = assay: Inhibition of MEK-mediated ERK phosphorylation in tumor of human LOX cells expressing B-Raf V600E mutant xenografted nude mouse at 100 mg/kg, po after 12 hrs by Western blot analysis relative to control; format: functional
[10] = Plasma concentration in human LOX cells expressing B-Raf V600E mutant xenografted nude mouse at 100 mg/kg, po after 1 hr; format: ADME, organism-based; parameters: dose 100 mg/kg, route oral
[11] = Drug level in human LOX cells expressing B-Raf V600E mutant xenografted nude mouse tumor at 100 mg/kg, po after 2 hrs; format: ADME, organism-based, Neoplasm; parameters: dose 100 mg/kg, route oral; conditions: read-out: Drug uptake
[12] = Drug level in human LOX cells expressing B-Raf V600E mutant xenografted nude mouse tumor at 100 mg/kg, po after 4 hrs; format: ADME, organism-based, Neoplasm; parameters: dose 100 mg/kg, route oral; conditions: read-out: Drug uptake
Mus musculus [13] = assay: Inhibition of MEK-mediated ERK phosphorylation in tumor of human HT-29 cells expressing B-Raf V600E mutant xenografted nude mouse at 50 mg/kg, po after 8 hrs by Western blot analysis relative to control; format: functional; conditions: HT-29, 8 h
Mus musculus [14] = assay: Inhibition of MEK-mediated ERK phosphorylation in tumor of human HT-29 cells expressing B-Raf V600E mutant xenografted nude mouse at 50 mg/kg, po after 12 hrs by Western blot analysis relative to control; format: functional; conditions: HT-29, 12 h
[15] = Plasma concentration in human HT-29 cells expressing B-Raf V600E mutant xenografted nude mouse at 50 mg/kg, po after 4 hrs; format: ADME, organism-based; parameters: dose 50 mg/kg, route oral
[16] = Drug level in human HT-29 cells expressing B-Raf V600E mutant xenografted nude mouse tumor at 50 mg/kg, po after 8 hrs; format: ADME, organism-based, Neoplasm; parameters: dose 50 mg/kg, route oral; conditions: read-out: Drug uptake
Mus musculus [17] = assay: Inhibition of MEK-mediated ERK phosphorylation in tumor of human HT-29 cells expressing B-Raf V600E mutant xenografted nude mouse at 100 mg/kg, po after 2 hrs by Western blot analysis relative to control; format: functional; conditions: HT-29, 2 h
Mus musculus [18] = assay: Inhibition of MEK-mediated ERK phosphorylation in tumor of human HT-29 cells expressing B-Raf V600E mutant xenografted nude mouse at 100 mg/kg, po after 8 hrs by Western blot analysis relative to control; format: functional; conditions: HT-29, 8 h
Mus musculus [19] = assay: Inhibition of MEK-mediated ERK phosphorylation in tumor of human HT-29 cells expressing B-Raf V600E mutant xenografted nude mouse at 100 mg/kg, po after 12 hrs by Western blot analysis relative to control; format: functional; conditions: HT-29, 12 h
[20] = Plasma concentration in human HT-29 cells expressing B-Raf V600E mutant xenografted nude mouse at 100 mg/kg, po after 4 hrs; format: ADME, organism-based; parameters: dose 100 mg/kg, route oral
[21] = Cmax in human LOX cells expressing B-Raf V600E mutant xenografted nude mouse at 25 mg/kg, po bid; format: ADME, organism-based; parameters: dose 25 mg/kg, route oral; conditions: in vivo
[22] = AUC (0 to 12 hrs) in human HT-29 cells expressing B-Raf V600E mutant xenografted nude mouse at 100 mg/kg, po bid; format: ADME, organism-based; parameters: time < 12 hr, dose 100 mg/kg, route oral; conditions: in vivo
Mus musculus [23] = assay: Average drug concentration in human HT-29 cells expressing B-Raf V600E mutant xenografted nude mouse plasma at 100 mg/kg, po bid; format: ADME, organism-based; parameters: dose 100 mg/kg, route oral; conditions: in vivo
[24] = AUC (0 to 12 hrs) in human H460 cells expressing K-Ras Q61H mutant xenografted nude mouse at 50 mg/kg, po bid; format: ADME, organism-based; parameters: time < 12 hr, dose 50 mg/kg, route oral; conditions: in vivo
[25] = Cmax in human H460 cells expressing K-Ras Q61H mutant xenografted nude mouse at 100 mg/kg, po bid; format: ADME, organism-based; parameters: dose 100 mg/kg, route oral; conditions: in vivo
[26] = Cmax in human H460 cells expressing K-Ras Q61H mutant xenografted nude mouse at 200 mg/kg, po qd; format: ADME, organism-based; parameters: dose 200 mg/kg, route oral; conditions: in vivo
[27] = Cmax in human MIAPaCa2 cells expressing K-Ras G12C mutant xenografted nude mouse at 50 mg/kg, po bid; format: ADME, organism-based, MIA PaCa-2; parameters: dose 50 mg/kg, route oral; conditions: in vivo
[28] = AUC (0 to 12 hrs) in human MIAPaCa2 cells expressing K-Ras G12C mutant xenografted nude mouse at 50 mg/kg, po bid; format: ADME, organism-based, MIA PaCa-2; parameters: time < 12 hr, dose 50 mg/kg, route oral; conditions: in vivo
[29] = AUC (0 to 12 hrs) in human MIAPaCa2 cells expressing K-Ras G12C mutant xenografted nude mouse at 100 mg/kg, po bid; format: ADME, organism-based, MIA PaCa-2; parameters: time < 12 hr, dose 100 mg/kg, route oral; conditions: in vivo
Mus musculus [30] = assay: Average drug concentration in human MIAPaCa2 cells expressing K-Ras G12C mutant xenografted nude mouse plasma at 100 mg/kg, po bid; format: ADME, organism-based, MIA PaCa-2; parameters: dose 100 mg/kg, route oral; conditions: in vivo
Mus musculus [31] = assay: Inhibition of MEK-mediated ERK phosphorylation in po dosed human HT-29 cells expressing B-Raf V600E mutant xenografted nude mouse tumor by Western blot analysis; format: functional, organism-based
MIA PaCa-2 = assay: Antitumor activity against human MIAPaCa2 cells expressing K-Ras G12C mutant xenografted in nude mouse assessed as tumor growth inhibition at 500 mg/kg, po administered weekly once; format: functional; conditions: read-out: GI
NCI-H460 [32] = assay: Antitumor activity against human H460 cells expressing K-Ras Q61H mutant xenografted in nude mouse assessed as tumor growth inhibition at 25 mg/kg, po bid; format: functional; conditions: read-out: GI
NCI-H460 [33] = assay: Antitumor activity against human H460 cells expressing K-Ras Q61H mutant xenografted in nude mouse assessed as tumor growth inhibition at 50 mg/kg, po bid; format: functional; conditions: read-out: GI
NCI-H460 [34] = assay: Antitumor activity against human H460 cells expressing K-Ras Q61H mutant xenografted in nude mouse assessed as tumor growth inhibition at 500 mg/kg, po administered weekly once; format: functional; conditions: read-out: GI
[35] = target: T1, Dual specificity mitogen-activated protein kinase kinase; MEK1/2 (Homo sapiens) (UniProt P36507+Q02750); conditions: HT-29, 2 to 10 uM
T1 sequence (P36507 whole entry, looked up): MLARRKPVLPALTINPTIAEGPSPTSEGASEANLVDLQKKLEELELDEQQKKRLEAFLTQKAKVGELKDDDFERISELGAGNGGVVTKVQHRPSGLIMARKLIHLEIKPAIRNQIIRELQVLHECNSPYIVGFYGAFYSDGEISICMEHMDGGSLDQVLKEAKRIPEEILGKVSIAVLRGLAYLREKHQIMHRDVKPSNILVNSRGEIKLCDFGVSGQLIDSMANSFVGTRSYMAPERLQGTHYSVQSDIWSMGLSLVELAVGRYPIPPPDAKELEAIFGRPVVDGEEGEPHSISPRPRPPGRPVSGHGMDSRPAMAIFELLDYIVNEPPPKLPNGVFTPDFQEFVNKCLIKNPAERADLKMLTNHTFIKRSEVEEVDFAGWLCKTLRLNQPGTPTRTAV
T1 sequence (Q02750 whole entry, looked up): as the sequence (Q02750 whole entry) above
Description: Inhibition of MEK1/2 in human HT-29 cells assessed as inhibition of ERK1/2 phosphorylation at 2 to 10 uM by Western blot analysis

[36] = target: T1, Dual specificity mitogen-activated protein kinase kinase; MEK1/2 (Homo sapiens); conditions: LOX, 2 to 10 uM
Description: Inhibition of MEK1/2 in human LOX cells assessed as inhibition of ERK1/2 phosphorylation at 2 to 10 uM by Western blot analysis

With `C[C@@H](c1ccccc1)[C@@H](C(=O)Nc1ccc(I)cc1F)N1C(=O)N[C@H](c2ccc(OC[C@H](O)CO)cc2)C1=O` the IC50 [1] was 0.022 µM, the IC50 [2] was 0.018 µM and the IC90 [2] was 0.72 µM. The IC50 (NCI-H460 [3]) was 0.3 µM, the IC90 (NCI-H460 [3]) was 3.08 µM and the Activity (HT-29) was “Active”. The Activity [4] was “Active”, the inhibition in vivo at 6.25 mg/kg [5] was 61% and the Activity (Mus musculus [6]) was “Non-toxic”. The Activity (Mus musculus [7]) was “Non-toxic”, the inhibition in vivo at 100 mg/kg (Mus musculus [8]) was 77% and the inhibition in vivo at 100 mg/kg (Mus musculus [9]) was 12%. The concentration at 1 h [10] was 4840 ng/mL, the concentration at 2 h [11] was 3040 ng/g and the concentration at 4 h [12] was 2630 ng/g. It also gave an inhibition in vivo at 50 mg/kg (Mus musculus [13]) of 12%, an inhibition in vivo at 50 mg/kg (Mus musculus [14]) of 0% and a concentration at 4 h [15] of 4030 ng/mL. For the same compound, the concentration at 8 h [16] was 906 ng/g, the inhibition in vivo at 100 mg/kg (Mus musculus [17]) was 76% and the inhibition in vivo at 100 mg/kg (Mus musculus [18]) was 0%. It also gave an inhibition in vivo at 100 mg/kg (Mus musculus [19]) of 0%, a concentration at 4 h [20] of 6030 ng/mL and a Cmax [21] of 3790 ng/mL. It also gave an AUC at 12 h [22] of 18400 ng·h/mL, a Cave (Mus musculus [23]) of 1530 ng/mL and an AUC at 12 h [24] of 23300 ng·h/mL. For the same compound, the Cmax [25] was 16900 ng/mL, the Cmax [26] was 20700 ng/mL and the Cmax [27] was 5240 ng/mL. The AUC at 12 h [28] was 18800 ng·h/mL, the AUC at 12 h [29] was 32700 ng·h/mL and the Cave (Mus musculus [30]) was 2725 ng/mL. The EC50 (Mus musculus [31]) was 1001 ng/g, the inhibition in vivo at 500 mg/kg (MIA PaCa-2) was 42% and the inhibition in vivo at 25 mg/kg (NCI-H460 [32]) was 64%. For the same compound, the inhibition in vivo at 50 mg/kg (NCI-H460 [33]) was 83%, the inhibition in vivo at 500 mg/kg (NCI-H460 [34]) was 48% and the inhibition [35] was “Active”. The inhibition [36] was “Active”.
